Test systems include HCT-15; HL-60; HT-29; IGROV-1; MOLT-4; Malme-3M; OVCAR-8; RXF 393; SF-268; SF-295; SF-539; SK-MEL-5; UACC-257; EKVX; HCC 2998; OVCAR-3.
Assay in all cases: NCI-60 cell line screen, 48 h

The structures appear in SMILES notation.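 Compound exposure: 48 hours, 5 concentrations, 96-well plates. GI50 marks 50% less growth.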 Active and inactive are the calls of the source. No stated cut-off is given here; in the data, active = GI50 up to about 1.1 µM and inactive = higher.

In the case of `Oc1cc(-c2ccccc2)c2ccccc2n1`, the GI50 is 58.9 µM with HCT-15; 88.1 µM (inactive) with HL-60; > 100 µM (inactive) in the assay on HT-29; 23.9 µM (inactive) in the assay on IGROV-1; 37.8 µM (inactive) with MOLT-4; 24.9 µM (inactive) in the assay on Malme-3M. The GI50 was > 100 µM (inactive) in the assay on OVCAR-8; 36.2 µM (inactive) in the assay on RXF 393; 52.6 µM (inactive) with SF-268; 87.9 µM (inactive) in the assay on SF-295; 52.7 µM (inactive) in the assay with SF-539; 16.6 µM (inactive) with SK-MEL-5. In the assay on UACC-257, the GI50 is 61 µM (inactive).
Take `COc1ccccc1/N=N/C(C(=O)c1ccccc1)C(=O)c1ccccc1`: the GI50 in the assay with EKVX is 21.4 µM (inactive); in the assay on HCC 2998 it was 27.1 µM (inactive); in the assay on HCT-15 it was 14.9 µM; in the assay on HL-60, 7.8 µM (inactive); in the assay with HT-29, 25.9 µM (inactive); with IGROV-1, 27 µM (inactive). Also, the GI50 with MOLT-4 was 9.48 µM (inactive); with Malme-3M, 25.4 µM (inactive); with OVCAR-3 it was 22.5 µM (inactive); in the assay on OVCAR-8 it was 21.5 µM (inactive); in the assay with SF-268, 21.1 µM (inactive); in the assay with SF-295, 17.8 µM (inactive). Also, the GI50 is 26.2 µM (inactive) in the assay on SF-539, 18 µM (inactive) with SK-MEL-5 and 28.4 µM (inactive) with UACC-257.
`Cc1ccc(C)c2sc3cc(=O)ccc-3nc12`: the GI50 in the assay on EKVX was 37.2 µM (inactive); with HCC 2998, 44.1 µM (inactive); in the assay with HCT-15 it was 29.4 µM; with HL-60, 10.5 µM (inactive); in the assay on HT-29 it was 44 µM (inactive); in the assay on IGROV-1 it was 82 µM (inactive). The GI50 in the assay on MOLT-4 is 15 µM (inactive); with OVCAR-3 it was 43.3 µM (inactive); in the assay with OVCAR-8, 35.2 µM (inactive); with SF-268, 43.5 µM (inactive); in the assay with SF-295, 39.1 µM (inactive); with SF-539, 32.2 µM (inactive). The GI50 is 16.5 µM (inactive) in the assay with SK-MEL-5 and 35.1 µM (inactive) in the assay on UACC-257.
For `CC(=O)O[C@H]1CC[C@@]2(C)C(=C/C(=N\[N+](=O)[O-])[C@H]3C4CCC([C@H](C)CCCC(C)C)[C@@]4(C)CCC32)C1` (stereo not given in full), the GI50 is > 100 µM (inactive) with EKVX; more than 100 µM in the assay on HCT-15; > 100 µM (inactive) in the assay on HL-60; > 100 µM (inactive) in the assay with HT-29; > 100 µM (inactive) in the assay on IGROV-1; > 100 µM (inactive) with MOLT-4. In addition, the GI50 with Malme-3M, with OVCAR-3, in the assay on OVCAR-8, in the assay with RXF 393, in the assay with SF-268 and with SF-295 was > 100 µM (inactive) throughout. Also, the GI50 in the assay with SF-539, with SK-MEL-5 and in the assay with UACC-257 was > 100 µM (inactive) in each case.
With `CCCCc1c2c(nc3c1CCC/C3=C\c1ccccc1)/C(=C/c1ccccc1)CCC2`, the GI50 in the assay on EKVX was > 100 µM (inactive); in the assay on HCC 2998, > 100 µM (inactive); with HCT-15, more than 100 µM; in the assay on HL-60, > 100 µM (inactive); with HT-29, > 100 µM (inactive); in the assay with IGROV-1, > 100 µM (inactive). In addition, the GI50 in the assay with MOLT-4, in the assay with Malme-3M, in the assay on OVCAR-3, with OVCAR-8, in the assay on SF-268 and in the assay on SF-295 was > 100 µM (inactive) in each case. The GI50 with SF-539, with SK-MEL-5 and in the assay on UACC-257 was > 100 µM (inactive) throughout.
On to `CCOC(=O)C1(C)C2=CC=C(O2)C(C)(C)C2=CC=C(O2)C(C)(C)C2=CC=C(O2)C(C)(C)C2=CC=C1O2`, for which the GI50 was > 100 µM (inactive) in the assay on EKVX; > 100 µM (inactive) in the assay on HCC 2998; more than 100 µM in the assay with HCT-15; 55.3 µM (inactive) in the assay with HL-60; > 100 µM (inactive) with HT-29; > 100 µM (inactive) in the assay on IGROV-1. Also, the GI50 in the assay on MOLT-4 is 53.5 µM (inactive); in the assay on Malme-3M it was > 100 µM (inactive); in the assay on OVCAR-8, 76.2 µM (inactive); in the assay with RXF 393, > 100 µM (inactive); in the assay on SF-268, > 100 µM (inactive); with SF-295 it was > 100 µM (inactive). The GI50 with SF-539 and in the assay with UACC-257 was > 100 µM (inactive) throughout.
On to `N#CC(NNC(=O)Cc1ccccc1)c1ccc(O)cc1` (stereo not given), for which the GI50 in the assay with HCT-15 is more than 100 µM; in the assay with HL-60, > 100 µM (inactive); in the assay with HT-29 it was > 100 µM (inactive); in the assay with IGROV-1, > 100 µM (inactive); with MOLT-4 it was > 100 µM (inactive); with Malme-3M it was > 100 µM (inactive). The GI50 with OVCAR-8, in the assay on RXF 393, with SF-268, in the assay on SF-295, in the assay with SF-539 and with SK-MEL-5 was > 100 µM (inactive) each time. For the same compound, the GI50 in the assay on UACC-257 is > 100 µM (inactive).
On to `COc1ccc2c(c1)c1c3n2CCNN=C3CCC1`, for which the GI50 is > 100 µM (inactive) in the assay on EKVX; > 100 µM (inactive) in the assay with HCC 2998; more than 70.1 µM in the assay with HCT-15; 5.66 µM (inactive) in the assay on HL-60; > 100 µM (inactive) in the assay on HT-29; > 85.7 µM (inactive) with IGROV-1. The GI50 in the assay with MOLT-4 was > 37.5 µM (inactive); with Malme-3M it was > 100 µM (inactive); with OVCAR-3, > 100 µM (inactive); with OVCAR-8 it was > 81.1 µM (inactive); with SF-268, 88.7 µM (inactive); in the assay with SF-295 it was > 100 µM (inactive). In addition, the GI50 in the assay with SF-539 is > 77.4 µM (inactive); in the assay with SK-MEL-5 it was > 100 µM (inactive); with UACC-257, > 53.8 µM (inactive).
As for `C[Si](C)(C)C(CCCCSc1ccccc1)(Sc1ccccc1)Sc1ccccc1`, the GI50 in the assay on EKVX is > 100 µM (inactive); with HCC 2998, > 100 µM (inactive); with HCT-15 it was more than 100 µM; with HL-60, > 100 µM (inactive); in the assay with MOLT-4 it was > 100 µM (inactive); in the assay with OVCAR-8, > 100 µM (inactive). Moreover, the GI50 in the assay with RXF 393, with SF-268, in the assay with SF-295, with SF-539, in the assay with SK-MEL-5 and in the assay with UACC-257 was > 100 µM (inactive) throughout.
As to `Oc1cc(C2OCCCO2)cc(O)c1O`, the GI50 in the assay on EKVX is > 100 µM (inactive); with HCC 2998, > 100 µM (inactive); with HCT-15, more than 100 µM; in the assay on HL-60 it was > 100 µM (inactive); in the assay on HT-29, > 100 µM (inactive); in the assay on IGROV-1 it was > 100 µM (inactive). The GI50 with MOLT-4, in the assay with Malme-3M, in the assay on OVCAR-3, in the assay with OVCAR-8, in the assay on SF-268 and in the assay on SF-295 was > 100 µM (inactive) throughout. Further, the GI50 with SF-539, in the assay on SK-MEL-5 and in the assay with UACC-257 was > 100 µM (inactive) throughout.
`CC(=O)NC(CC(C)C)C(=O)NC(Cc1ccccc1)C(=S)N1CCCC1` (stereo not given): the GI50 with EKVX is > 100 µM (inactive); in the assay with HCC 2998 it was > 100 µM (inactive); in the assay with HCT-15, more than 100 µM; with HL-60, > 100 µM (inactive); with HT-29, > 100 µM (inactive); in the assay on IGROV-1, > 100 µM (inactive). The GI50 in the assay on MOLT-4, in the assay with Malme-3M, in the assay on OVCAR-3, in the assay on OVCAR-8, in the assay on RXF 393 and in the assay on SF-268 was > 100 µM (inactive) each time. The GI50 with SF-295, in the assay on SK-MEL-5 and in the assay on UACC-257 was > 100 µM (inactive) each time.
As to `CC(C)(C)c1ccc(OC2CCO2)cc1` (stereo not given), the GI50 with EKVX is 35.1 µM (inactive); in the assay with HCC 2998, 27.5 µM (inactive); with HCT-15, 20 µM; in the assay with HT-29, 23.1 µM (inactive); with IGROV-1, > 100 µM (inactive); in the assay on MOLT-4 it was 38.1 µM (inactive). Besides, the GI50 was 67 µM (inactive) in the assay with Malme-3M; 34.5 µM (inactive) with OVCAR-3; 38.6 µM (inactive) in the assay on OVCAR-8; 33.6 µM (inactive) in the assay on SF-268; 46.9 µM (inactive) with SF-295; 37.6 µM (inactive) with SF-539. For the same compound, the results for the GI50 in the assay on SK-MEL-5 and in the assay on UACC-257 were 36.3 µM (inactive) and 31.6 µM (inactive), respectively.
As to `COc1cc(/C=C\c2ccccn2)cc(OC)c1OC`, the GI50 with EKVX was 48.5 µM (inactive); with HCT-15, 78.3 µM; with HL-60, 31 µM (inactive); in the assay on HT-29 it was 46.3 µM (inactive); in the assay with IGROV-1, > 100 µM (inactive); in the assay with MOLT-4 it was 61.9 µM (inactive). For the same compound, the GI50 in the assay with Malme-3M, with OVCAR-3, in the assay with OVCAR-8, in the assay with RXF 393, in the assay on SF-268 and with SF-295 was > 100 µM (inactive) in each case. Further, the GI50 in the assay with SF-539 was > 100 µM (inactive); in the assay with SK-MEL-5, 57.5 µM (inactive); in the assay with UACC-257, > 100 µM (inactive).
Regarding `CC(C)NC(C)Cc1ccccc1` (stereo not given), the GI50 is > 100 µM (inactive) in the assay on EKVX; > 100 µM (inactive) in the assay with HCC 2998; 3.97 µM in the assay with HCT-15; > 100 µM (inactive) with HL-60; > 100 µM (inactive) in the assay with HT-29; > 100 µM (inactive) with IGROV-1. In addition, the GI50 in the assay with Malme-3M, in the assay on OVCAR-3, in the assay with OVCAR-8, in the assay with RXF 393, in the assay on SF-268 and in the assay with SF-295 was > 100 µM (inactive) throughout. The GI50 in the assay with SF-539, with SK-MEL-5 and in the assay on UACC-257 was > 100 µM (inactive) throughout.

(Values after ChEMBL document CHEMBL1201862, “PubChem BioAssay data set” (2004).)
